Experiment [1] concerns the target T1, CFTR (F508del/MF-HBE cells) (Homo sapiens, UniProt P13569, DEL508-508).
T1 construct: human bronchial epithelial (HBE) cells derived from CF subjects heterozygous for F508del and a minimal function CFTR mutation (F508del/MF-HBE); endogenous in cells; host or cells: Primary human bronchial epithelial cells from CF subjects (F508del/MF genotype), differentiated at an air-liquid interface
The experiment is described as follows: Ussing chamber assay of CFTR-mediated short-circuit currents, Assay D (single concentration of 1 μM). Type of experiment: cell-based. The conditions noted are these: with 44 nM potentiator and 18 μM Tezacaftor, 18-24 hours, 20% human serum. As for the experimental part:
(§1) Ussing chamber experiments were performed using human bronchial epithelial (HBE) cells derived from CF subjects heterozygous for F508del and a minimal function CFTR mutation (F508del/MF-HBE) and cultured as previously described (Neuberger T, Burton B, Clark H, Van Goor F Methods Mol Biol 2011:741:39-54). After four days the apical media was removed, and the cells were grown at an air liquid interface for >14 days prior to use.
(§2) To isolate the CFTR-mediated short-circuit (ISC) current, F508del/MF-HBE grown on Costar® Snapwell™ cell culture inserts were mounted in an Ussing chamber and the transepithelial ISC was measured under voltage-clamp recording conditions (Vhold=0 mV) at 37° C. The basolateral solution contained (in mM) 145 NaCl, 0.83 K2HPO4, 3.3 KH2PO4, 1.2 MgCl2, 1.2 CaCl2, 10 Glucose, 10 HEPES (pH adjusted to 7.4 with NaOH) and the apical solution contained (in mM) 145 NaGluconate, 1.2 MgCl2, 1.2 CaCl2, 10 glucose, 10 HEPES (pH adjusted to 7.4 with NaOH) and 30 μM amiloride to block the epithelial sodium channel. Forskolin (20 μM) was added to the apical surface to activate CFTR, followed by apical addition of a CFTR inhibitor cocktail consisting of BPO, GlyH-101, and CFTR inhibitor 172 (each at 20 μM final assay concentration) to specifically isolate CFTR currents. The CFTR-mediated ISC (μA/cm^2) for each condition was determined from the peak forskolin response to the steady-state current following inhibition.
(§3) The activity of the CFTR corrector compounds on the CFTR-mediated ISC was determined in Ussing chamber studies as described above. The F508del/MF-HBE cell cultures were either incubated with the corrector compounds at a range of concentrations in combination with 33 nM (6R,12R)-17-amino-12-methyl-6,15-bis(trifluoromethyl)-13,19-dioxa-3,4,18-triazatricyclo[12.3.1.12,5]nonadeca-1(18),2,4,14,16-pentaen-6-ol and 18 μM Tezacaftor or were incubated with the corrector compounds at a single fixed concentration of 1 μM in combination with 44 nM (6R,12R)-17-amino-12-methyl-6,15-bis(trifluoromethyl)-13,19-dioxa-3,4,18-triazatricyclo[12.3.1.12,5]nonadeca-1(18),2,4,14,16-pentaen-6-ol and 18 μM Tezacaftor for 18-24 hours at 37° C. and in the presence of 20% human serum. The concentration of corrector compounds with 44 nM or 33 nM (6R,12R)-17-amino-12-methyl-6,15-bis(trifluoromethyl)-13,19-dioxa-3,4,18-triazatricyclo[12.3.1.12,5]nonadeca-1(18),2,4,14,16-pentaen-6-ol and 18 μM Tezacaftor during the 18-24 hours incubations was kept constant throughout the Ussing chamber measurement of the CFTR-mediated ISC to ensure compounds were present throughout the entire experiment. The efficacy and potency of the putative F508del correctors was compared to that of the known Vertex corrector, (14S)-8-[3-(2-{Dispiro[2.0.2.1]heptan-7-yl}ethoxy)-1H-pyrazol-1-yl]-12,12-dimethyl-2λ^6-thia-3,9,11,18,23-pentaazatetracyclo[17.3.1.111,14.05,10]tetracosa-1(22),5,7,9,19(23),20-hexaene-2,2,4-trione, in combination with 18 μM Tezacaftor and 1 μM Ivacaftor.
(§4) • Assay A: 0.1 μM to 25 μM, 6 concentrations • Assay B: 0.00001 μM to 25 μM, 12 concentrations • Assay C: 0.026 μM to 25 μM, 6 concentrations • Assay D: Activity at single concentration of 1 μM

Experiment [2] addresses T1, CFTR (F508del/MF-HBE cells). Description: Ussing chamber assay of CFTR-mediated short-circuit currents, Assay C (0.026 μM to 25 μM, 6 concentrations). Type of experiment: cell-based. The conditions noted are these: with 33 nM potentiator and 18 μM Tezacaftor, 20% human serum; for Emax: read-out: C Max activity (%). Here is the method: as §1, §2, §3, §4

24 molecules from patent US20250340574A1, “MODULATORS OF CYSTIC FIBROSIS TRANSMEMBRANE CONDUCTANCE REGULATOR” (Vertex Pharmaceuticals Incorporated, priority 2022, published 2025) can be followed below.

pEC50: −log10 of the molar value. Where two headings read alike, the source gives them in different places. Bounds are passed on as bounds.

In general, pEC50 refers to the negative decadic logarithm of the EC50, by convention in mol/L.

T1 sequence (P13569 with tags, fused parts or gaps DEL508-508): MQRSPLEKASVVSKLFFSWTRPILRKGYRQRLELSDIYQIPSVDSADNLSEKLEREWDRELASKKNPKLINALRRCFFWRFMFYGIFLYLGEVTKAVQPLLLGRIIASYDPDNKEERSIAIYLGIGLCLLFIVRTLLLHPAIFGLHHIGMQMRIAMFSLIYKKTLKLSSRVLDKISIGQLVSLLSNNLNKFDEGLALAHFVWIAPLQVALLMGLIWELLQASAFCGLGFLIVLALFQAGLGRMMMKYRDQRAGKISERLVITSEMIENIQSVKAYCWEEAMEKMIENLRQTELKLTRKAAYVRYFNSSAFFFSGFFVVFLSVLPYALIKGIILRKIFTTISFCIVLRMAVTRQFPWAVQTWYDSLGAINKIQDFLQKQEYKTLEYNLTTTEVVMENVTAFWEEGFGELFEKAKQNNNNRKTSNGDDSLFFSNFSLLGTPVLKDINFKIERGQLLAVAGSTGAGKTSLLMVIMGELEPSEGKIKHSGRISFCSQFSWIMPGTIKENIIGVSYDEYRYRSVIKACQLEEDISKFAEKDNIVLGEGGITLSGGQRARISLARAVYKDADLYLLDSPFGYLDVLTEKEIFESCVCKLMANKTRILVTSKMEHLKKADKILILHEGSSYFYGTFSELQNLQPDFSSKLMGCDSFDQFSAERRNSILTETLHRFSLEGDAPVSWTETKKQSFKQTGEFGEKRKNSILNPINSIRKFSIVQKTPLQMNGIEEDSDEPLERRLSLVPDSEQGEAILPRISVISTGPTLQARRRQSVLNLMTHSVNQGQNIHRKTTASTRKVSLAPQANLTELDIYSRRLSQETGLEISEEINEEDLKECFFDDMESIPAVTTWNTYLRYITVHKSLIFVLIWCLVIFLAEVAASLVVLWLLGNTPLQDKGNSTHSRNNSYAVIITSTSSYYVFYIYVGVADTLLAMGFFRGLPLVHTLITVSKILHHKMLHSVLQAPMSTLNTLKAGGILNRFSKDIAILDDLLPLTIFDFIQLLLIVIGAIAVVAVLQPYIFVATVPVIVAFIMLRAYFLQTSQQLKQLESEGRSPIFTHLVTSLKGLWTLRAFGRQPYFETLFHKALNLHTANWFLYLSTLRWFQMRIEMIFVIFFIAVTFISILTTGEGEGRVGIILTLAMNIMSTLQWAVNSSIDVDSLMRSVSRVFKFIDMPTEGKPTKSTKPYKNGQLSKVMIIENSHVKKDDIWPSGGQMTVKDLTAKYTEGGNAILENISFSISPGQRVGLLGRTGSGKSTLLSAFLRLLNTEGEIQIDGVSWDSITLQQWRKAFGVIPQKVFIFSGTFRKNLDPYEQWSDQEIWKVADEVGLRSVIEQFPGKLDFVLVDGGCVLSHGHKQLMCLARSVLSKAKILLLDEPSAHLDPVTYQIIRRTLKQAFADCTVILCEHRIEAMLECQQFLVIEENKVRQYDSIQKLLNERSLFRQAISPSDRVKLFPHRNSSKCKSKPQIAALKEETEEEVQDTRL

In the case of `COC1(C[C@@H]2COc3cc(-c4c(C)cccc4C)nc(n3)NS(=O)(=O)c3cccc(c3)C(=O)N2Cc2cnc3oc(C(C)C)cc3n2)CCC1` [Compound I-76], the “D activity at 1 μM (%)” value in experiment [1] is “+++ (+++ is >60%)”. The same measure, in the same setting: to `Cc1cccc(C)c1-c1cc2nc(n1)NS(=O)(=O)c1cccc(c1)C(=O)N(Cc1cnc3cc(C(C)C)n(C)c3n1)[C@H](Cc1ccccc1)CO2` [Compound I-190] belongs “+++ (+++ is >60%)”. Take `Cc1cccc(CC(C)C)c1-c1nc2nc(c1C)OC[C@@H](C[C@@H]1CCCCO1)N(Cc1cnc3cc(C(C)(C)C)n(C)c3n1)C(=O)c1cccc(c1)S(=O)(=O)N2` (atropisomer, axis not shown) [IV-81]: in experiment [2], the pEC50 is above 6.00 and the Emax was above 60%. For `Cc1cccc(CC2CCCCC2)c1-c1nc2nc(c1C)OC[C@@H](CC(C)(C)C)N(Cc1cnc3cc(C(C)C)n(C)c3n1)C(=O)c1cccc(c1)S(=O)(=O)N2` (atropisomer, axis not shown) [Compound I-178], the Emax in experiment [2] (18-24 hours) was above 60%. In experiment [2], the pEC50 is above 6.00.

For the molecule `Cc1cccc(C)c1-c1cc2nc(n1)NS(=O)(=O)c1cccc(c1)C(=O)N(Cc1cnc3oc(C(C)(C)CO)cc3n1)[C@H](CC1(C)CC1)CO2` [Compound I-112], in experiment [2] (18-24 hours), the Emax was above 60%. The pEC50 in experiment [2] was 4.52 to 5.52. In the case of `Cc1cccc(CC(C)C)c1-c1nc2nc(c1C)OC[C@@H](COC(F)(F)F)N(Cc1cnc3cc(C4CC4)n(C)c3n1)C(=O)c1cccc(c1)S(=O)(=O)N2` [IV-69], in experiment [2], the pEC50 is 5.52 to 6.00 and the Emax was above 60%. For the molecule `Cc1cccc(C)c1-c1cc2nc(n1)NS(=O)(=O)c1cccc(c1)C(=O)N(Cc1cnc3oc(C(C)(C)C)cc3n1)[C@@H](CC1CC(F)(F)C1)CO2` [IV-57], in experiment [2], the pEC50 is 4.52 to 5.52 and the Emax is above 60%. Taken in the same sequence, the figures for `Cc1cccc(C)c1-c1cc2nc(n1)NS(=O)(=O)c1cccc(c1)C(=O)N(Cc1cnc3cc(C4(C(F)(F)F)CC4)n(C)c3n1)[C@H](CC1(C)CC1)CO2` [IV-75] were 5.52 to 6.00 and 30 to 60%. For `Cc1cccc(CCC(C)C)c1-c1nc2nc(c1C)OC[C@@H](CC(C)(C)C)N(Cc1cnc3cc(C(C)C)n(C)c3n1)C(=O)c1cccc(c1)S(=O)(=O)N2` (single isomer, unassigned) [Compound I-202], the Emax in experiment [2] (18-24 hours) is above 60%. Moreover, in experiment [2], the pEC50 is above 6.00.

Turning to `Cc1cccc(OC(C)C)c1-c1nc2nc(c1C)OC[C@@H](CC(C)(C)C)N(Cc1cnc3oc(C(C)(C)C)cc3n1)C(=O)c1cccc(c1)S(=O)(=O)N2` (atropisomer, axis not shown) [Compound I-249], the Emax in experiment [2] (18-24 hours) was above 60%. Also, in experiment [2], the pEC50 is 5.52 to 6.00.

Regarding `Cc1cccc(C)c1-c1cc2nc(n1)NS(=O)(=O)c1cccc(c1)C(=O)N(Cc1cnc3oc(C4CCC4)cc3n1)[C@H](CC1(C)CC1)CO2` [Compound I-133], the Emax in experiment [2] (18-24 hours) is above 60%. Moreover, the pEC50 in experiment [2] was 4.52 to 5.52. Take `Cc1cccc(C)c1-c1cc2nc(n1)NS(=O)(=O)c1cccc(c1)C(=O)N(Cc1cnc3cc(C(C)(C)C(F)(F)F)n(C)c3n1)[C@H](COC(C)C)CO2` [IV-99]: in experiment [2], the pEC50 was 5.52 to 6.00 and the Emax was above 60%. As for `Cc1cccc(C)c1-c1cc2nc(n1)NS(=O)(=O)c1cccc(c1)C(=O)N(Cc1cnc3oc(C4(C)CC4)cc3n1)[C@H](C[C@@H]1CCCO1)CO2` [IV-84], in experiment [2], the pEC50 was 5.52 to 6.00 and the Emax was above 60%. Take `Cc1cccc(C)c1-c1cc2nc(n1)NS(=O)(=O)c1cccc(c1)C(=O)N(Cc1cnc3oc(C4CC4)cc3n1)[C@H]([C@H](C)OC(C)(C)C)CO2` (stereo in doubt) [IV-80]: in experiment [2], the pEC50 was 5.52 to 6.00 and the Emax is above 60%. As for `Cc1cccc(C)c1-c1cc2nc(n1)NS(=O)(=O)c1cccc(c1)C(=O)N(Cc1cnc3cc(C(C)(C)C)n(C)c3n1)[C@@H](C(C1CCC1)C1CCC1)CO2` [IV-50], in experiment [2], the pEC50 was above 6.00 and the Emax is above 60%.

For the molecule `Cc1cccc(C)c1-c1cc2nc(n1)NS(=O)(=O)c1cccc(c1)C(=O)N(Cc1nc3cc(C4CC4)oc3cc1F)[C@H](COC(C)C)CO2` [Compound I-198], the Emax in experiment [2] (18-24 hours) was above 60%. Further, the negative-log EC50 (pEC50) in experiment [2] was 5.52 to 6.00.

For the molecule `Cc1cccc(CC(C)C)c1-c1nc2nc(c1C)OC[C@@H](COC(F)(F)F)N(Cc1cnc3cc(C(C)(C)C)n(C)c3n1)C(=O)c1cccc(c1)S(=O)(=O)N2` (atropisomer, axis not shown; (P)) [IV-70, (6P,11S)-12-({6-tert-butyl-5-methyl-5H-pyrrolo[2,3-b]pyrazin-3-yl}methyl)-7-methyl-6-[2-methyl-6-(2-methylpropyl)phenyl]-11-[(trifluoromethoxy)methyl]-9-oxa-2λ^6-thia-3,5,12,19-tetraazatricyclo[12.3.1.1∧{4,8}]nonadeca-1(17),4,6,8(19),14(18),15-hexaene-2,2,13-trione], in experiment [2], the pEC50 is 5.52 to 6.00 and the Emax was above 60%.

For `Cc1cccc(C)c1-c1cc2nc(n1)NS(=O)(=O)c1cccc(c1)C(=O)N(Cc1cnc3oc(C4CC5(CC5)C4)cc3n1)[C@H](CC1(C)CC1)CO2` [IV-65], in experiment [2], the pEC50 is 5.52 to 6.00 and the Emax was above 60%. With `Cc1cccc(C)c1-c1nc2nc(c1C)OC[C@@H](C[C@@H]1CCCO1)N(Cc1cnc3cc(C4(C(F)(F)F)CC4)n(C)c3n1)C(=O)c1cccc(c1)S(=O)(=O)N2` [IV-105], in experiment [2], the pEC50 is above 6.00 and the Emax is above 60%. On to `Cc1cccc(OC(C)C)c1-c1nc2nc(c1C)OC[C@@H](CC(C)(C)C)N(Cc1cnc3cc(C(C)(C)C)n(C)c3n1)C(=O)c1cccc(c1)S(=O)(=O)N2` (atropisomer, axis not shown) [Compound I-260], for which the Emax in experiment [2] (18-24 hours) was above 60%. The pEC50 in experiment [2] is above 6.00.

As for `Cc1cccc(CC(C)C)c1-c1nc2nc(c1C)OC[C@@H](CC(C)(C)C)N(Cc1ncc3cc(C4CC4)n(C)c3n1)C(=O)c1cccc(c1)S(=O)(=O)N2` (atropisomer, axis not shown) [IV-25], in experiment [2], the pEC50 was 5.52 to 6.00 and the Emax was above 60%. The like results for `Cc1cccc(C)c1-c1cc2nc(n1)NS(=O)(=O)c1cccc(c1)C(=O)N(Cc1cnc3cc(C(C)(C)C)n(C)c3n1)[C@H](C1CCCO1)CO2` (single isomer, unassigned) [IV-96] were, in that order, above 6.00 and above 60%.

As to `Cc1cccc(CC(C)C)c1-c1nc2nc(c1C)OC[C@@H](CC13CC(C1)C3)N(Cc1cnc3oc(C(C)(C)C)cc3n1)C(=O)c1cccc(c1)S(=O)(=O)N2` [Compound I-247], in experiment [2] (18-24 hours), the Emax was above 60%. The pEC50 in experiment [2] was above 6.00. Turning to `Cc1cccc(CC(C)(C)C)c1-c1nc2nc(c1C)OC[C@@H](CC(C)(C)C)N(Cc1cnc3oc(C(C)(C)C)cc3n1)C(=O)c1cccc(c1)S(=O)(=O)N2` (atropisomer, axis not shown) [Compound I-245], the Emax in experiment [2] (18-24 hours) was above 60%. For the same molecule, the pEC50 in experiment [2] is above 6.00.
